Assay: xn = mol fraction of the nth substance listed
Conditions: 101 kPa

CCCCCC[n+]1ccn(C)c1.[I-] + [I-].[Li+]
Conditions	electrical conductivity, x1 = 0.32 [S/m]	electrical conductivity, x1 = 0.59 [S/m]	viscosity, x1 = 0.32 [mPa·s]	viscosity, x1 = 0.59 [mPa·s]	viscosity, x1 = 1 [mPa·s]
288.1 K	0.0025	0.0002	–	–	–
293 K	0.0046	0.0005	–	–	2633
298.1 K	0.0086	–	–	–	1742
303 K	0.011	0.0019	–	7760	–
308.1 K	0.0189	–	–	–	802
313 K	0.032	0.0054	–	2420	564
318.1 K	0.0536	0.0086	–	1470	405
323 K	0.0894	0.0133	–	989	279
328.1 K	0.145	0.0206	–	682	–
333 K	–	0.0301	–	491	164
338.1 K	–	0.0428	–	359	123.6
343 K	0.504	0.0601	380	272	100.4
348.1 K	–	0.082	–	219	79.9
353 K	0.842	0.109	225	179	64.6
358.1 K	1.04	0.142	177	144.7	52.1
363 K	1.27	0.182	144.7	119.9	42
368.1 K	1.61	0.232	124.1	101.5	–
373 K	–	0.287	–	–	–

— a compilation of properties of binary mixtures (doi:10.1016/j.molliq.2014.07.031)
